Reference: the supplement of paper PMC4862054

Assays:
Conditions in all cases: incubation time: 72 h
BT-474 [1] = experiment: normalised response (% of control), CellTox Green; higher = less cell death (100 = DMSO, 0 = benzethonium chloride kill control)
Procedure, shortened: (§1)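 Breast cancer cell lines in 20 µl suspension were added to 384-well plates containing compound at 5 concentrations, spaced in 10-fold steps across a 10,000-fold range chosen for each compound, and incubated for 72 h. CellTox Green fluorescence was read at 485/520 nm, followed by CellTiter-Glo luminescence after 10 min at room temperature. Signals on each plate were normalised so that 0.1 % DMSO equals 100 and a positive kill control equals 0. Every value in the table is the normalised signal at one concentration of the series.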

BT-549 [2] = experiment: as above
Procedure, shortened: as §1

CAL-120 [3] = experiment: as above
Procedure, shortened: as §1

CAL-148 [4] = experiment: as above
Procedure, shortened: as §1

CAL-51 [5] = experiment: as above
Procedure, shortened: as §1

CAL-85-1 [6] = experiment: as above
Procedure, shortened: as §1

DU-4475 [7] = experiment: as above
Procedure, shortened: as §1

HCC1143 [8] = experiment: as above
Procedure, shortened: as §1

HCC1599 [9] = experiment: as above
Procedure, shortened: as §1

HCC1937 [10] = experiment: as above
Procedure, shortened: as §1

HDQ-P1 [11] = experiment: as above
Procedure, shortened: as §1

Hs578T [12] = experiment: as above
Procedure, shortened: as §1

MCF-10A [13] = experiment: as above
Procedure, shortened: as §1

MDA-MB-231 [14] = experiment: as above
Procedure, shortened: as §1

MDA-MB-436 [15] = experiment: as above
Procedure, shortened: as §1

MDA-MB-453 [16] = experiment: as above
Procedure, shortened: as §1

MDA-MB-468 [17] = experiment: as above
Procedure, shortened: as §1

MFM-223 [18] = experiment: as above
Procedure, shortened: as §1

BT-474 [19] = experiment: normalised response (% of control), CellTiter-Glo; higher = more viable cells (100 = DMSO, 0 = benzethonium chloride kill control)
Method: (§2)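 DSRT, 72 h incubation, CellTox Green / CellTiter-Glo readout. Signal is normalised to DMSO and benzethonium chloride controls. Value is the normalised response at the highest dose.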

BT-549 [20] = experiment: as above
Method: as §2

CAL-120 [21] = experiment: as above
Method: as §2

CAL-148 [22] = experiment: as above
Method: as §2

CAL-51 [23] = experiment: as above
Method: as §2

CAL-85-1 [24] = experiment: as above
Method: as §2

DU-4475 [25] = experiment: as above
Method: as §2

HCC1143 [26] = experiment: as above
Method: as §2

HCC1599 [27] = experiment: as above
Method: as §2

HCC1937 [28] = experiment: as above
Method: as §2

HDQ-P1 [29] = experiment: as above
Method: as §2

Hs578T [30] = experiment: as above
Method: as §2

MCF-10A [31] = experiment: as above
Method: as §2

MDA-MB-231 [32] = experiment: as above
Method: as §2

MDA-MB-436 [33] = experiment: as above
Method: as §2

MDA-MB-453 [34] = experiment: as above
Method: as §2

MDA-MB-468 [35] = experiment: as above
Method: as §2

MFM-223 [36] = experiment: as above
Method: as §2

SK-BR-3 = experiment: as above
Method: as §2

Compound | normalised response (BT-474 [1]) [%] | normalised response (BT-549 [2]) [%] | normalised response (CAL-120 [3]) [%] | normalised response (CAL-148 [4]) [%] | normalised response (CAL-51 [5]) [%] | normalised response (CAL-85-1 [6]) [%] | normalised response (DU-4475 [7]) [%] | normalised response (HCC1143 [8]) [%] | normalised response (HCC1599 [9]) [%] | normalised response (HCC1937 [10]) [%] | normalised response (HDQ-P1 [11]) [%] | normalised response (Hs578T [12]) [%] | normalised response (MCF-10A [13]) [%] | normalised response (MDA-MB-231 [14]) [%] | normalised response (MDA-MB-436 [15]) [%] | normalised response (MDA-MB-453 [16]) [%] | normalised response (MDA-MB-468 [17]) [%] | normalised response (MFM-223 [18]) [%] | normalised response (BT-474 [19]) [%] | normalised response (BT-549 [20]) [%] | normalised response (CAL-120 [21]) [%] | normalised response (CAL-148 [22]) [%] | normalised response (CAL-51 [23]) [%] | normalised response (CAL-85-1 [24]) [%] | normalised response (DU-4475 [25]) [%] | normalised response (HCC1143 [26]) [%] | normalised response (HCC1599 [27]) [%] | normalised response (HCC1937 [28]) [%] | normalised response (HDQ-P1 [29]) [%] | normalised response (Hs578T [30]) [%] | normalised response (MCF-10A [31]) [%] | normalised response (MDA-MB-231 [32]) [%] | normalised response (MDA-MB-436 [33]) [%] | normalised response (MDA-MB-453 [34]) [%] | normalised response (MDA-MB-468 [35]) [%] | normalised response (MFM-223 [36]) [%] | normalised response (SK-BR-3) [%]
CCCCCCCCc1ccc(CCC(N)(CO)CO)cc1 [Fingolimod] (10000 nM) | 0.12 | 57 | 69.4 | 67.4 | 47.5 | -110 | 100 | 97 | 91.4 | 5.79 | 53.7 | 37.8 | -90 | -62.5 | 44.4 | 33.6 | -186 | 62.1 | 1.96 | 11.2 | 78.1 | 44.7 | 47.6 | -0.17 | 89.2 | 75.8 | 61.6 | 5.87 | 27.9 | 62.2 | -0.32 | 1.4 | 12.8 | 0.66 | -0.02 | 39.2 | -0.19
Cn1c(=O)n(-c2ccc(C(C)(C)C#N)cc2)c2c3cc(-c4cnc5ccccc5c4)ccc3ncc21 [Dactolisib] (1000 nM) | 101 | 112 | 104 | -65 | 81.3 | 64.6 | 102 | 130 | 107 | 45.6 | 115 | 101 | 87.3 | 126 | 112 | 104 | 170 | 28.8 | 61.8 | 25.9 | 26.2 | 33.1 | 23.5 | 43 | 30.4 | 37.5 | 82 | 58 | 52.4 | 33.9 | 52.3 | 51.3 | 57 | 37.9 | 31.5 | 42.3 | 27.2
COc1ccc(-c2ccc3c(N4CCOC[C@@H]4C)nc(N4CCOC[C@@H]4C)nc3n2)cc1CO [AZD8055] (10000 nM) | 48 | 111 | 102 | 56.6 | 76.6 | 88.1 | 82.6 | -36.9 | 86.4 | 97.3 | 99.7 | 94.8 | 76.3 | 97.3 | 68.7 | 92.3 | 27.8 | 83.7 | 42.5 | 19.9 | 18.8 | 14.6 | 15.9 | 27.6 | 15.3 | 25.3 | 77.3 | 38.3 | 29 | 22.4 | 21.4 | 33.5 | 46.4 | 27.2 | 21 | 26.4 | 18.2
COc1ccccc1S(=O)(=O)Nc1ccc2c(c1)CN(C)C(=O)N2 [PFI-1] (10000 nM) | 105 | 108 | 104 | 91.6 | 83.5 | 65.1 | 90.2 | 104 | 104 | 120 | 103 | 135 | 125 | 117 | 101 | 94.5 | 193 | 103 | 64.6 | 44.5 | 75.8 | 82 | 56.9 | 46.2 | 71.8 | 67.1 | 56.6 | 74.1 | 65.2 | 41.6 | 54.1 | 66.8 | 80 | 42.8 | 65.4 | 59.5 | 64.3
